Counter-ions that a name gives are not always drawn.
How the values were obtained:
DβH = molecular target: T1, DβH (Homo sapiens, UniProt P09172); test: DβH inhibition assay in SK-N-SH cellular homogenates (tyramine to octopamine); type: biochemical; conditions: SK-N-SH cell homogenate; for SKNSH (1 μM), activity in % of control: inhibitor 1 μM; for SKNSH (0.1 μM), activity in % of control: inhibitor 0.1 μM
T1 construct: cellular homogenate (75 μg total protein); host or cells: SK-N-SH cells (homogenate)
T1 sequence (P09172 1-617): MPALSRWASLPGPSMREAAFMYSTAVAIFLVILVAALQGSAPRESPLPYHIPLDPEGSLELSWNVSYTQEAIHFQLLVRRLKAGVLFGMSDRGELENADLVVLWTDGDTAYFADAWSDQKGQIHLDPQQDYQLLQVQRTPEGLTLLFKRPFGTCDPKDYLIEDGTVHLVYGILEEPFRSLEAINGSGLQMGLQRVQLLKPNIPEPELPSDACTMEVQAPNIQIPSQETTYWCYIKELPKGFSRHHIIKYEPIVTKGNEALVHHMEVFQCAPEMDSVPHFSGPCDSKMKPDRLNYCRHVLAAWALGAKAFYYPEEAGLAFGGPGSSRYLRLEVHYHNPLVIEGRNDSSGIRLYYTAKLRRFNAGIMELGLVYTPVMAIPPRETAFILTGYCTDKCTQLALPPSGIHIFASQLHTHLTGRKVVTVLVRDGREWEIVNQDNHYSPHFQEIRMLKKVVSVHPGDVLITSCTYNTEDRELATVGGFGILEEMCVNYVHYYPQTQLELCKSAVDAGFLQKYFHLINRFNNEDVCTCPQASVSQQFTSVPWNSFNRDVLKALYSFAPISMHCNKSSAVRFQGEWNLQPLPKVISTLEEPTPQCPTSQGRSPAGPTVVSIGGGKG

[1] = molecular target: T2, Dopamine beta hydroxylase (Homo sapiens, UniProt P09172); test: Dopamine beta hydroxylase activity in human plasma; type: biochemical; conditions: for Plasma (0.01 μM), activity in % of control: inhibitor 0.01 μM; for Plasma (0.1 μM), activity in % of control: inhibitor 0.1 μM
T2 construct: 125 μl of plasma; tissue Instituto Português do Sangue Transplantação; host or cells: human plasma from healthy donors
T2 sequence (P09172 40-617 limits assumed): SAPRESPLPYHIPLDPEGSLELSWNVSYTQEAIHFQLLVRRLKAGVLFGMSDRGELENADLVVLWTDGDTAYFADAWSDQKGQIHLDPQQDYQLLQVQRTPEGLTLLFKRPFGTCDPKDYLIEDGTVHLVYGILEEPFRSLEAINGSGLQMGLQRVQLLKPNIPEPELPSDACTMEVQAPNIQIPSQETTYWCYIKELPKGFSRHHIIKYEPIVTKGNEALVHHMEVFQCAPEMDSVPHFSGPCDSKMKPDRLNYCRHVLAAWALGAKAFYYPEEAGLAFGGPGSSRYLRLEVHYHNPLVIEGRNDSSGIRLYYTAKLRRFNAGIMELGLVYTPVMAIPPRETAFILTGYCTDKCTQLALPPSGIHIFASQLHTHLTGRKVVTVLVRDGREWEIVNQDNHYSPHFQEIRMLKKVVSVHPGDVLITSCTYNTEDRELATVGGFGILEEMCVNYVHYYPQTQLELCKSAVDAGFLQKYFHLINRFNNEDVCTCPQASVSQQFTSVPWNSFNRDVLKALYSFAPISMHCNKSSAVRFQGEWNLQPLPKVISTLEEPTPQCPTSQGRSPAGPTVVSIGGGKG
Summary of the method: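 Octopamine production from tyramine over 45 min at 37° C, measured photometrically at 330 nm after SCX extraction and periodate oxidation against an octopamine standard curve, indicates plasma DβH activity. Compounds tested at final 10, 100 and 1000 nM in human plasma, pH 5.0 cofactor buffer, 10 min preincubation; results as % of control.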

SKNSH (1 μM), activity in % of control (DβH)	Structure (SMILES)	other results
28.5 % of control	O=C(O)Cc1[nH]c(=S)n2c1C[C@@H](c1cc(F)cc(F)c1)C2 [Example 11, (S)-2-(6-(3,5-difluorophenyl)-3-thioxo-3,5,6,7-tetrahydro-2H-pyrrolo[1,2-c]imidazol-1-yl)acetic Acid]	
3.7 % of control	O=C(O)Cc1[nH]c(=S)n2c1[C@@H]1C[C@]1(c1cc(F)ccc1F)C2 [Example 6, 2-((5aS,6aR)-5a-(2,5-difluorophenyl)-3-thioxo-2,3,5,5a,6,6a-hexahydrocyclopropa[3,4]pyrrolo[1,2-c]imidazol-1-yl)acetic Acid]	SKNSH (0.1 μM), activity in % of control (DβH): 36.9 % of control
8.0 % of control	OCCc1[nH]c(=S)n2c1[C@@H]1C[C@]1(c1cc(F)ccc1F)C2 [Example 42, (5aS,6aR)-5a-(2,5-difluorophenyl)-1-(2-hydroxyethyl)-5,5a,6,6a-tetrahydrocyclopropa[3,4]pyrrolo[1,2-c]imidazole-3(2H)-thione]	SKNSH (0.1 μM), activity in % of control (DβH): 51.5 % of control
45.9 % of control	CCOC(=O)Cc1[nH]c(=S)n2c1C1CC1(c1cccs1)C2 (stereo not drawn) [Example 44, Ethyl 2-(5a-(thiophen-2-yl)-3-thioxo-2,3,5,5a,6,6a-hexahydrocyclopropa[3,4]pyrrolo[1,2-c]imidazol-1-yl)acetate]	
20.9 % of control	CCCCN(C)C(=O)Cc1[nH]c(=S)n2c1[C@@H]1C[C@]1(c1cc(F)ccc1F)C2 [Example 38, N-butyl-2-((5aS,6aR)-5a-(2,5-difluorophenyl)-3-thioxo-2,3,5,5a,6,6a-hexahydrocyclopropa[3,4]pyrrolo[1,2-c]imidazol-1-yl)-N-methylacetamide]	
3.6 % of control	O=C(O)Cc1[nH]c(=S)n2c1[C@@H]1C[C@]1(c1cc(F)cc(F)c1)C2 [Example 7, 2-((5aS,6aR)-5a-(3,5-difluorophenyl)-3-thioxo-2,3,5,5a,6,6a-hexahydrocyclopropa[3,4]pyrrolo[1,2-c]imidazol-1-yl)acetic Acid]	SKNSH (0.1 μM), activity in % of control (DβH): 45.6 % of control
1.8 % of control	OCc1[nH]c(=S)n2c1[C@@H]1C[C@]1(c1cc(F)cc(F)c1)C2 [Example 50, (5aS,6aR)-5a-(3,5-difluorophenyl)-1-(hydroxymethyl)-5,5a,6,6a-tetrahydrocyclopropa[3,4]pyrrolo[1,2-c]imidazole-3(2H)-thione]	SKNSH (0.1 μM), activity in % of control (DβH): 57.5 % of control
33.7 % of control	Fc1ccc(F)c([C@]23C[C@H]2c2c(CCCc4ccccc4)[nH]c(=S)n2C3)c1 [Example 49, (5aS,6aR)-5a-(2,5-difluorophenyl)-1-(3-phenylpropyl)-5,5a,6,6a-tetrahydrocyclopropa[3,4]pyrrolo[1,2-c]imidazole-3(2H)-thione]	

Further lines, the compound ahead of its results:

Structure (SMILES)	SKNSH (1 μM), activity in % of control (DβH)	other results
CN(Cc1ccccc1)C(=O)Cc1[nH]c(=S)n2c1[C@@H]1C[C@]1(c1cc(F)ccc1F)C2 [Example 37, N-benzyl-2-((5aS,6aR)-5a-(2,5-difluorophenyl)-3-thioxo-2,3,5,5a,6,6a-hexahydrocyclopropa[3,4]pyrrolo[1,2-c]imidazol-1-yl)-N-methylacetamide]	15.7 % of control	
O=C(O)Cc1[nH]c(=S)n2c1C[C@@H](c1c(F)c(F)cc(F)c1F)C2 [Example 10, (S)-2-(6-(2,3,5,6-tetrafluorophenyl)-3-thioxo-3,5,6,7-tetrahydro-2H-pyrrolo[1,2-c]imidazol-1-yl)acetic Acid]	2.1 % of control	SKNSH (0.1 μM), activity in % of control (DβH): 46.4 % of control
NCCc1[nH]c(=S)n2c1[C@@H]1C[C@]1(c1cc(F)cc(F)c1)C2 [Example 35, (5aS,6aR)-1-(2-aminoethyl)-5a-(3,5-difluorophenyl)-5,5a,6,6a-tetrahydrocyclopropa[3,4]pyrrolo[1,2-c]imidazole-3(2H)-thione Hydrochloride]	45.9 % of control	
NC(=O)Cc1[nH]c(=S)n2c1[C@@H]1C[C@]1(c1cc(F)cc(F)c1)C2 [Example 33, 2-((5aS,6aR)-5a-(3,5-difluorophenyl)-3-thioxo-2,3,5,5a,6,6a-hexahydrocyclopropa[3,4]pyrrolo[1,2-c]imidazol-1-yl)acetamide]	33.4 % of control	
O=C(O)c1[nH]c(=S)n2c1C[C@@H](c1cc(F)cc(F)c1)C2 [Example 43, (S)-6-(3,5-difluorophenyl)-3-thioxo-3,5,6,7-tetrahydro-2H-pyrrolo[1,2-c]imidazole-1-carboxylic Acid]	45.6 % of control	
CS(=O)(=O)Cc1[nH]c(=S)n2c1C[C@@H](c1c(F)c(F)cc(F)c1F)C2 [Example 47, (S)-1-(methylsulfonylmethyl)-6-(2,3,5,6-tetrafluorophenyl)-6,7-dihydro-2H-pyrrolo[1,2-c]imidazole-3(5H)-thione]	62.9 % of control	
Fc1ccc(F)c([C@]23C[C@H]2c2c(Cc4nnn[nH]4)[nH]c(=S)n2C3)c1 [Example 41, (5aS,6aR)-1-((1H-tetrazol-5-yl)methyl)-5a-(2,5-difluorophenyl)-5,5a,6,6a-tetrahydrocyclopropa[3,4]pyrrolo[1,2-c]imidazole-3(2H)-thione]	60.7 % of control	
O=C(Cc1[nH]c(=S)n2c1C[C@@H](c1cc(F)cc(F)c1)C2)N1CCOCC1 [Example 9, (S)-2-(6-(3,5-difluorophenyl)-3-thioxo-3,5,6,7-tetrahydro-2H-pyrrolo[1,2-c]imidazol-1-yl)-1-morpholinoethanone]	54.9 % of control	
N#CCc1[nH]c(=S)n2c1[C@@H]1C[C@]1(c1cc(F)ccc1F)C2 [Example 36, 2-((5aS,6aR)-5a-(2,5-difluorophenyl)-3-thioxo-2,3,5,5a,6,6a-hexahydrocyclopropa[3,4]pyrrolo[1,2-c]imidazol-1-yl)acetonitrile]	50.1 % of control	
COC[C@@H]1CCCN1C(=O)Cc1c2n(c(=S)n1C)C[C@@H](c1c(F)c(F)cc(F)c1F)C2 [Example 283, 1-((S)-2-(methoxymethyl)pyrrolidin-1-yl)-2-((R)-2-methyl-6-(2,3,5,6-tetrafluorophenyl)-3-thioxo-2,5,6,7-tetrahydro-3H-pyrrolo[1,2-c]imidazol-1-yl)ethan-1-one]		Plasma (0.01 μM), activity in % of control [1]: 96.0 % of control; Plasma (0.1 μM), activity in % of control [1]: 72.9 % of control
Cn1c(CC(=O)NC2CCCCC2)c2n(c1=S)C[C@H](c1c(F)ccc(Cl)c1F)C2 [Example 356, (S)-2-(6-(3-chloro-2,6-difluorophenyl)-2-methyl-3-thioxo-2,5,6,7-tetrahydro-3H-pyrrolo[1,2-c]imidazol-1-yl)-N-cyclohexylacetamide]		Plasma (0.01 μM), activity in % of control [1]: 35.4 % of control; Plasma (0.1 μM), activity in % of control [1]: 6.6 % of control
O=C(O)Cc1[nH]c(=S)n2c1C[C@H](c1cc(Cl)ccc1F)C2 [Example 17, (R)-2-(6-(5-chloro-2-fluorophenyl)-3-thioxo-2,5,6,7-tetrahydro-3H-pyrrolo[1,2-c]imidazol-1-yl)acetic Acid]		Plasma (0.1 μM), activity in % of control [1]: 79.0 % of control; Plasma (1 μM), activity in % of control ([1]; inhibitor 1 μM): 32.2 % of control
[2H]C([2H])([2H])n1c(CC(=O)N[C@H]2CCOC2)c2n(c1=S)C[C@@]1(c3cc(Br)ccc3F)C[C@@H]21 [Example 461, 2-((5aS,6aR)-5a-(5-bromo-2-fluorophenyl)-2-(methyl-d)-3-thioxo-2,3,5,5a,6,6a-hexahydrocyclopropa[3,4]pyrrolo[1,2-c]imidazol-1-yl)-N—((S)-tetrahydrofuran-3-yl)acetamide]		Plasma (0.01 μM), activity in % of control [1]: 45.6 % of control; Plasma (0.1 μM), activity in % of control [1]: 6.9 % of control
